Assay results as given in the supplement of paper PMC10307832.

Tests used:
Experiment in all cases: relative viability (nuclei count vs DMSO), 5 days (fraction); higher = more cells survive
AZD6482 + Vorinostat = compound: Cc1cc([C@@H](C)Nc2ccccc2C(=O)O)c2nc(N3CCOCC3)cc(=O)n2c1 [AZD6482] + O=C(CCCCCCC(=O)Nc1ccccc1)NO [Vorinostat] (partner 1 µM)
How it was run: (§1)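 Lung cancer cell lines were seeded in 1536-well plates and dosed by pin tool the next day, with either a single drug or a fixed anchor-drug dose combined with five library-drug doses (not always all listed) spaced in √10 steps. Five days later, one step fixed the cells and stained their nuclei (final 0.05% Triton X-100, 1% formaldehyde, 1 ug/ml Hoechst), and nuclei were counted on 4× images. Relative viability is the nuclei count in treated wells divided by the count in vehicle wells, and each value is the median of duplicate plates.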

AZD6482 + Bortezomib = compound: Cc1cc([C@@H](C)Nc2ccccc2C(=O)O)c2nc(N3CCOCC3)cc(=O)n2c1 [AZD6482] + CC(C)C[C@H](NC(=O)[C@H](Cc1ccccc1)NC(=O)c1cnccn1)B(O)O [Bortezomib] (partner 0.002 µM)
How it was run: as §1

[1] = compound: COc1cc2nc(N3CCCN(C)CC3)nc(NC3CCN(Cc4ccccc4)CC3)c2cc1OC + CC(=O)c1c(C)c2cnc(Nc3ccc(N4CCNCC4)cn3)nc2n(C2CCCC2)c1=O [Palbociclib] (partner 0.5 µM)
How it was run: as §1

[2] = compound: COc1cc2nc(N3CCCN(C)CC3)nc(NC3CCN(Cc4ccccc4)CC3)c2cc1OC + C[C@@H](Oc1cc(-c2cnn(C3CCNCC3)c2)cnc1N)c1c(Cl)ccc(F)c1Cl [Crizotinib] (partner 1 µM)
How it was run: as §1

201T
relative viability (AZD6482 + Vorinostat; first compound 0.08 µM): 0.965
relative viability (AZD6482 + Vorinostat; first compound 0.253 µM): 0.938
relative viability (AZD6482 + Vorinostat; first compound 0.8 µM): 0.983
relative viability (AZD6482 + Vorinostat; first compound 2.53 µM): 0.764
relative viability (AZD6482 + Vorinostat; first compound 8 µM): 0.862
relative viability (AZD6482 + Bortezomib; first compound 0.08 µM): 1.08
relative viability (AZD6482 + Bortezomib; first compound 0.253 µM): 1.08
relative viability (AZD6482 + Bortezomib; first compound 0.8 µM): 1.14
relative viability (AZD6482 + Bortezomib; first compound 2.53 µM): 0.891
relative viability (AZD6482 + Bortezomib; first compound 8 µM): 1.11
relative viability ([1]; first compound 0.2 µM): 0.375
relative viability ([1]; first compound 0.6325 µM): 0.361
relative viability ([1]; first compound 2 µM): 0.354
relative viability ([1]; first compound 6.325 µM): 0.365
relative viability ([2]; first compound 0.2 µM): 0.995
relative viability ([2]; first compound 0.6325 µM): 1.1
relative viability ([2]; first compound 2 µM): 1.04
relative viability ([2]; first compound 6.325 µM): 0.995

A549
relative viability ([2]; first compound 0.2 µM): 0.803
relative viability ([2]; first compound 0.6325 µM): 0.638
relative viability ([2]; first compound 2 µM): 0.966
relative viability ([2]; first compound 6.325 µM): 0.736

A-427
relative viability (AZD6482 + Vorinostat; first compound 0.08 µM): 0.806
relative viability (AZD6482 + Vorinostat; first compound 0.253 µM): 0.843
relative viability (AZD6482 + Vorinostat; first compound 0.8 µM): 0.87
relative viability (AZD6482 + Vorinostat; first compound 2.53 µM): 0.706
relative viability (AZD6482 + Vorinostat; first compound 8 µM): 0.826
relative viability (AZD6482 + Bortezomib; first compound 0.08 µM): 0.992
relative viability (AZD6482 + Bortezomib; first compound 0.253 µM): 1.01
relative viability (AZD6482 + Bortezomib; first compound 0.8 µM): 0.978
relative viability (AZD6482 + Bortezomib; first compound 2.53 µM): 0.741
relative viability (AZD6482 + Bortezomib; first compound 8 µM): 0.961
relative viability ([1]; first compound 0.2 µM): 0.533
relative viability ([1]; first compound 0.6325 µM): 0.503
relative viability ([1]; first compound 2 µM): 0.521
relative viability ([1]; first compound 6.325 µM): 0.485
relative viability ([2]; first compound 0.2 µM): 0.861
relative viability ([2]; first compound 0.6325 µM): 0.781
relative viability ([2]; first compound 2 µM): 1.04
relative viability ([2]; first compound 6.325 µM): 0.838

ABC-1
relative viability (AZD6482 + Vorinostat; first compound 0.08 µM): 1.11
relative viability (AZD6482 + Vorinostat; first compound 0.253 µM): 0.877
relative viability (AZD6482 + Vorinostat; first compound 0.8 µM): 1.01
relative viability (AZD6482 + Vorinostat; first compound 2.53 µM): 0.83
relative viability (AZD6482 + Vorinostat; first compound 8 µM): 0.986
relative viability (AZD6482 + Bortezomib; first compound 0.08 µM): 0.267
relative viability (AZD6482 + Bortezomib; first compound 0.253 µM): 0.306
relative viability (AZD6482 + Bortezomib; first compound 0.8 µM): 0.317
relative viability (AZD6482 + Bortezomib; first compound 2.53 µM): 0.336
relative viability (AZD6482 + Bortezomib; first compound 8 µM): 0.408
relative viability ([1]; first compound 0.2 µM): 0.718
relative viability ([1]; first compound 0.6325 µM): 0.682
relative viability ([1]; first compound 2 µM): 0.754
relative viability ([1]; first compound 6.325 µM): 0.6
relative viability ([2]; first compound 0.2 µM): 1.01
relative viability ([2]; first compound 0.6325 µM): 1.01
relative viability ([2]; first compound 2 µM): 1.05
relative viability ([2]; first compound 6.325 µM): 1.15

BEN
relative viability (AZD6482 + Vorinostat; first compound 0.08 µM): 0.541
relative viability (AZD6482 + Vorinostat; first compound 0.253 µM): 0.546
relative viability (AZD6482 + Vorinostat; first compound 0.8 µM): 0.594
relative viability (AZD6482 + Vorinostat; first compound 2.53 µM): 0.467
relative viability (AZD6482 + Vorinostat; first compound 8 µM): 0.578
relative viability (AZD6482 + Bortezomib; first compound 0.08 µM): 0.592
relative viability (AZD6482 + Bortezomib; first compound 0.253 µM): 0.768
relative viability (AZD6482 + Bortezomib; first compound 0.8 µM): 0.596
relative viability (AZD6482 + Bortezomib; first compound 2.53 µM): 0.641
relative viability (AZD6482 + Bortezomib; first compound 8 µM): 0.788
relative viability ([1]; first compound 0.2 µM): 0.437
relative viability ([1]; first compound 0.6325 µM): 0.471
relative viability ([1]; first compound 2 µM): 0.473
relative viability ([1]; first compound 6.325 µM): 0.476
relative viability ([2]; first compound 0.2 µM): 0.923
relative viability ([2]; first compound 0.6325 µM): 0.892
relative viability ([2]; first compound 2 µM): 0.944
relative viability ([2]; first compound 6.325 µM): 0.963

CAL-12T
relative viability (AZD6482 + Vorinostat; first compound 0.08 µM): 0.715
relative viability (AZD6482 + Vorinostat; first compound 0.253 µM): 0.666
relative viability (AZD6482 + Vorinostat; first compound 0.8 µM): 0.737
relative viability (AZD6482 + Vorinostat; first compound 2.53 µM): 0.548
relative viability (AZD6482 + Vorinostat; first compound 8 µM): 0.556
relative viability (AZD6482 + Bortezomib; first compound 0.08 µM): 0.843
relative viability (AZD6482 + Bortezomib; first compound 0.8 µM): 0.895
relative viability (AZD6482 + Bortezomib; first compound 2.53 µM): 0.426
relative viability (AZD6482 + Bortezomib; first compound 8 µM): 0.597
relative viability ([1]; first compound 0.2 µM): 0.4
relative viability ([1]; first compound 0.6325 µM): 0.55
relative viability ([1]; first compound 2 µM): 0.482
relative viability ([1]; first compound 6.325 µM): 0.46
relative viability ([2]; first compound 0.2 µM): 0.529
relative viability ([2]; first compound 0.6325 µM): 0.464
relative viability ([2]; first compound 2 µM): 0.753
relative viability ([2]; first compound 6.325 µM): 0.477

COR-L23
relative viability (AZD6482 + Vorinostat; first compound 0.08 µM): 0.269
relative viability (AZD6482 + Vorinostat; first compound 0.253 µM): 0.512
relative viability (AZD6482 + Vorinostat; first compound 0.8 µM): 0.505
relative viability (AZD6482 + Vorinostat; first compound 2.53 µM): 0.28
relative viability (AZD6482 + Vorinostat; first compound 8 µM): 0.442
relative viability (AZD6482 + Bortezomib; first compound 0.08 µM): 0.948
relative viability (AZD6482 + Bortezomib; first compound 0.253 µM): 0.945
relative viability (AZD6482 + Bortezomib; first compound 0.8 µM): 1.23
relative viability (AZD6482 + Bortezomib; first compound 2.53 µM): 0.678
relative viability (AZD6482 + Bortezomib; first compound 8 µM): 0.828
relative viability ([1]; first compound 0.2 µM): 0.34
relative viability ([1]; first compound 0.6325 µM): 0.266
relative viability ([1]; first compound 2 µM): 0.362
relative viability ([1]; first compound 6.325 µM): 0.265
relative viability ([2]; first compound 0.2 µM): 0.471
relative viability ([2]; first compound 0.6325 µM): 0.562
relative viability ([2]; first compound 2 µM): 0.711
relative viability ([2]; first compound 6.325 µM): 0.673

COR-L 105
relative viability (AZD6482 + Vorinostat; first compound 0.08 µM): 0.75
relative viability (AZD6482 + Vorinostat; first compound 0.253 µM): 0.663
relative viability (AZD6482 + Vorinostat; first compound 0.8 µM): 0.907
relative viability (AZD6482 + Vorinostat; first compound 2.53 µM): 0.649
relative viability (AZD6482 + Vorinostat; first compound 8 µM): 0.648
relative viability (AZD6482 + Bortezomib; first compound 0.08 µM): 0.719
relative viability (AZD6482 + Bortezomib; first compound 0.253 µM): 0.893
relative viability (AZD6482 + Bortezomib; first compound 0.8 µM): 0.704
relative viability (AZD6482 + Bortezomib; first compound 2.53 µM): 0.699
relative viability (AZD6482 + Bortezomib; first compound 8 µM): 0.791
relative viability ([1]; first compound 0.2 µM): 0.375
relative viability ([1]; first compound 0.6325 µM): 0.398
relative viability ([1]; first compound 2 µM): 0.364
relative viability ([1]; first compound 6.325 µM): 0.396
relative viability ([2]; first compound 0.2 µM): 0.653
relative viability ([2]; first compound 0.6325 µM): 0.872
relative viability ([2]; first compound 2 µM): 0.878
relative viability ([2]; first compound 6.325 µM): 0.455

Calu-6
relative viability (AZD6482 + Bortezomib; first compound 0.08 µM): 0.889
relative viability (AZD6482 + Bortezomib; first compound 0.253 µM): 0.973
relative viability (AZD6482 + Bortezomib; first compound 0.8 µM): 0.978
relative viability (AZD6482 + Bortezomib; first compound 2.53 µM): 0.823
relative viability (AZD6482 + Bortezomib; first compound 8 µM): 0.889
relative viability ([2]; first compound 0.2 µM): 0.75
relative viability ([2]; first compound 0.6325 µM): 0.676
relative viability ([2]; first compound 2 µM): 0.814
relative viability ([2]; first compound 6.325 µM): 0.67

ChaGo-K-1
relative viability (AZD6482 + Vorinostat; first compound 0.08 µM): 0.752
relative viability (AZD6482 + Vorinostat; first compound 0.253 µM): 0.7
relative viability (AZD6482 + Vorinostat; first compound 0.8 µM): 0.744
relative viability (AZD6482 + Vorinostat; first compound 2.53 µM): 0.708
relative viability (AZD6482 + Vorinostat; first compound 8 µM): 0.773
relative viability (AZD6482 + Bortezomib; first compound 0.08 µM): 1.09
relative viability (AZD6482 + Bortezomib; first compound 0.8 µM): 1.14
relative viability (AZD6482 + Bortezomib; first compound 2.53 µM): 0.981
relative viability (AZD6482 + Bortezomib; first compound 8 µM): 1.27
relative viability ([1]; first compound 0.2 µM): 0.883
relative viability ([1]; first compound 0.6325 µM): 0.979
relative viability ([1]; first compound 2 µM): 0.933
relative viability ([1]; first compound 6.325 µM): 0.902
relative viability ([2]; first compound 0.2 µM): 1.18
relative viability ([2]; first compound 0.6325 µM): 1.11
relative viability ([2]; first compound 2 µM): 1.14
relative viability ([2]; first compound 6.325 µM): 1.09
